Assay results: ChEMBL document CHEMBL1743201, “Casarett and Doull's Toxicology The Basic Science of Poisons, 7th edition” (2008)

Biological target: T1, Glutathione S-transferase A1 (Homo sapiens, UniProt P08263)
T1 sequence (P08263 whole entry): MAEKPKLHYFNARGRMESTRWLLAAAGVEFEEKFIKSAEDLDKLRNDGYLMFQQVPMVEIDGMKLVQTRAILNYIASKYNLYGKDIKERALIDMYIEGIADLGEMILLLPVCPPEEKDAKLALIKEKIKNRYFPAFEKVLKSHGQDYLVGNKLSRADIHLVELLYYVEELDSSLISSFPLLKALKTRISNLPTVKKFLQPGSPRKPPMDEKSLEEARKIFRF
Assay: Substrates for human cytosolic glutathione transferase GSTA1
Assay type: ADME
Conditions: not given

| SMILES | Activity |
| --- | --- |
| Cn1c(N)nc2ncc(-c3ccccc3)cc21 [2-AMINO-1-METHYL-6- PHENYLIMIDAZO[4,5- B]PYRIDINE] | Substrate |
| OC1c2ccc3ccc4ccccc4c3c2C2OC2C1O (stereo unspecified) [BENZO[C]PHENANTHRENE DIOL EPOXIDE] | Substrate |
| OC1c2ccc3c4ccccc4c4ccccc4c3c2C2OC2C1O (stereo unspecified) [BENZO[G]CHRYSENE DIOL EPOXIDE] | Substrate |
| CS(=O)(=O)OCCCCOS(C)(=O)=O [BUSULFAN] | Substrate |

Biological target: T2, Cytochrome P450 1A2 (Homo sapiens, UniProt P05177)
T2 sequence (P05177 whole entry): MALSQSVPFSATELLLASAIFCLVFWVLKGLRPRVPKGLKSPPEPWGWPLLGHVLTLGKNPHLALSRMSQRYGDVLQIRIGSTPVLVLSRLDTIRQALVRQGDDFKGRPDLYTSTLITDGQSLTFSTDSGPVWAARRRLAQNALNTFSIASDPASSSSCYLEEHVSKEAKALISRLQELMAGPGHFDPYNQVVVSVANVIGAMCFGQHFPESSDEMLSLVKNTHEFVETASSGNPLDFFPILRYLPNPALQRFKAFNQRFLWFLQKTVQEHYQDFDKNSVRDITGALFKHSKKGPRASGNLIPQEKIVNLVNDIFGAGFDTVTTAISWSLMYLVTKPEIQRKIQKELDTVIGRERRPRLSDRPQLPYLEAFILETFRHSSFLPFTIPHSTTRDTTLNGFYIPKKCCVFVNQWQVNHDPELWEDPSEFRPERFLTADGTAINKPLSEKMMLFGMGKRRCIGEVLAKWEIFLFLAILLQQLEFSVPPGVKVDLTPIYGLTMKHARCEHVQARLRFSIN
Assay: Clinically relevant substrates of human liver microsomal P450 enzymes, isoform CYP1A2
Assay type: ADME
Conditions: microsomes

| SMILES | Activity |
| --- | --- |
| Cc1[nH]cnc1CN1CCc2c(c3ccccc3n2C)C1=O [ALOSETRON] | Substrate |
| Cn1c(=O)c2c(ncn2C)n(C)c1=O [CAFFEINE] | Substrate |
| CNCC[C@H](Oc1cccc2ccccc12)c1cccs1 [DULOXETINE] | Substrate |
| CCOc1ccc2nc3ccc(=O)cc-3oc2c1 [ETHOXYRESORUFIN] | Substrate |
| CCOc1ccc(NC(C)=O)cc1 [PHENACETIN] | Substrate |
| Nc1c2c(nc3ccccc13)CCCC2 [TACRINE] | Substrate |
| Cn1c(=O)c2[nH]cnc2n(C)c1=O.O [THEOPHYLLINE] | Substrate |
| Clc1ccc2nsnc2c1NC1=NCCN1 [TIZANIDINE] | Substrate |

Biological target: T3, Sulfotransferase 1E1 (Homo sapiens, UniProt P49888)
T3 sequence (P49888 whole entry): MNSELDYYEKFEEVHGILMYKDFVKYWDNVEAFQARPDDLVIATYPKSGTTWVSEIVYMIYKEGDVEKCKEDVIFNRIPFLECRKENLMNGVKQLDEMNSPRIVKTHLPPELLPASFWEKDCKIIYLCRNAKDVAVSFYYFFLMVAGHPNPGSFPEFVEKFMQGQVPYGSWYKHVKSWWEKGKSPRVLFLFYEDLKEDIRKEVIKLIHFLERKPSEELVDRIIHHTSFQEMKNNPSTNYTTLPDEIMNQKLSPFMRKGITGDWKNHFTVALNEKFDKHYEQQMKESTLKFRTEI
Assay: Major substrate of human cytosolic sulfotransferase SULT1E1
Assay type: ADME
Conditions: not given

| SMILES | Activity |
| --- | --- |
| C[C@]12CC[C@@H]3c4ccc(O)c(O)c4CC[C@H]3[C@@H]1CC[C@@H]2O | Substrate |
| O=C(O)Cc1cn(-c2ccc(O)cc2)nc1-c1ccc(Cl)cc1 | Substrate |
| C[C@]12CC[C@@H]3c4cc(O)c(O)cc4CC[C@H]3[C@@H]1CC[C@@H]2O | Substrate |
| C[C@]12CC[C@@H]3c4cc(O)c(O)cc4CC[C@H]3[C@@H]1CCC2=O [2-HYDROXYESTRONE] | Substrate |
| C[C@]12CCc3c(ccc4cc(O)ccc34)[C@@H]1CCC2=O [EQUILENIN] | Substrate |
| O=C1C[C@@H](c2ccc(O)cc2)Oc2cc(O)cc(O)c21 [NARINGENIN] | Substrate |
| CC/C(=C(\c1ccccc1)c1ccc(OCCN(C)C)cc1)c1ccccc1 [TAMOXIFEN] | Substrate |

Biological target: T4, Sulfotransferase 2A1 (Homo sapiens, UniProt Q06520)
T4 sequence (Q06520 whole entry): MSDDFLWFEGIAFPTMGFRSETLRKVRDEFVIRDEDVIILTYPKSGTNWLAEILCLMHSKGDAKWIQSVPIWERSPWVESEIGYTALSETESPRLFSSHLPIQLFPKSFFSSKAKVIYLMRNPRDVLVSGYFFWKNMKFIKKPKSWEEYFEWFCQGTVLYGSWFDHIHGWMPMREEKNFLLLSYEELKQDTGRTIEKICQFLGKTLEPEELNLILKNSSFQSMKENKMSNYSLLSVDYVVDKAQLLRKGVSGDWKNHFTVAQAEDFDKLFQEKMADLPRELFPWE
Assay: Major substrate of human cytosolic sulfotransferase SULT2A1
Assay type: ADME
Conditions: not given

| SMILES | Activity |
| --- | --- |
| OCc1c2ccccc2c2ccc3cccc4ccc1c2c43 | Substrate |
| CCCC1O[C@@H]2C[C@H]3[C@@H]4CCC5=CC(=O)C=C[C@]5(C)[C@H]4[C@@H](O)C[C@]3(C)[C@]2(C(=O)CO)O1 (stereo partly specified) [BUDESONIDE] | Substrate |
| CCN(CC)CCNc1ccc(CO)c2sc3ccccc3c(=O)c12 [HYCANTHONE] | Substrate |

Biological target: Sulfotransferase 1A1 (Homo sapiens, UniProt P50225)
Assay: Major substrate of human cytosolic sulfotransferase SULT1A1
Assay type: ADME
Conditions: not given

Sequence of Sulfotransferase 1A1 (P50225 whole entry): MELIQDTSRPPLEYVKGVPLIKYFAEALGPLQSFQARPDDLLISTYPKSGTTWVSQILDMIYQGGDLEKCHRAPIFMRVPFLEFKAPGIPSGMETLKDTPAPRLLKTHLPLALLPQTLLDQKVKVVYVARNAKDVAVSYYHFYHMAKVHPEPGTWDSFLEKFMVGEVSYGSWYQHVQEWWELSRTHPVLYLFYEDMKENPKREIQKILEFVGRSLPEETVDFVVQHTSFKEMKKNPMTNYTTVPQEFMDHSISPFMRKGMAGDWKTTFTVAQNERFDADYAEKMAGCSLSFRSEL

| SMILES | Activity |
| --- | --- |
| CCc1ccc(O)cc1 | Substrate |
| Cn1c(NO)nc2ncc(-c3ccccc3)cc21 | Substrate |
| CC(C)[N+](=O)[O-] | Substrate |
| CN1CCc2cccc3c2[C@H]1Cc1ccc(O)c(O)c1-3 [APOMORPHINE] | Substrate |
| Nc1cc(N2CCCCC2)nc(N)[n+]1[O-] [MINOXIDIL] | Substrate |
| Cc1ccc(O)cc1 [p-CRESOL] | Substrate |

Biological target: T5, UDP-glucuronosyltransferase 1A8 (Homo sapiens, UniProt Q9HAW9)
T5 sequence (Q9HAW9 whole entry): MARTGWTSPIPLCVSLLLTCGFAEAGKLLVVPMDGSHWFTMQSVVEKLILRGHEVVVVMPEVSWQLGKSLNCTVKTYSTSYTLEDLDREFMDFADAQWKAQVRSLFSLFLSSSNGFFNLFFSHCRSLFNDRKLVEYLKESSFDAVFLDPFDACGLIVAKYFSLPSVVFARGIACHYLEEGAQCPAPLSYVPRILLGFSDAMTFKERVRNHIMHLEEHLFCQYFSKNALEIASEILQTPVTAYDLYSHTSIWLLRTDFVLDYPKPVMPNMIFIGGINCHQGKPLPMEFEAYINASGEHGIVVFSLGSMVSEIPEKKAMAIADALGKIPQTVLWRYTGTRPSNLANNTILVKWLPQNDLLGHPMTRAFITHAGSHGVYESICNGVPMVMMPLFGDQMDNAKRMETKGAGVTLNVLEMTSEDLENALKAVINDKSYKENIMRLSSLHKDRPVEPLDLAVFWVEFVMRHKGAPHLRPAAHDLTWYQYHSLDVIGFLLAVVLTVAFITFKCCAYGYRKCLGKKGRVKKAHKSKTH
Assay: Substrate of human UDP-glucuronosyltransferase UGT1A8
Assay type: ADME
Conditions: not given

| SMILES | Activity |
| --- | --- |
| O=C1c2ccccc2C(=O)c2ccccc21 [ANTHRAQUINONE] | Substrate |
| CC(C)(Oc1ccc(C2CC2(Cl)Cl)cc1)C(=O)O (stereo unspecified) [CIPROFIBRATE] | Substrate |
| CC(C)(Oc1ccc(Cl)cc1)C(=O)O [CLOFIBRIC ACID] | Substrate |
| O=C(O)c1cc(-c2ccc(F)cc2F)ccc1O [DIFLUNISAL] | Substrate |
| O=C(O)c1cccnc1Nc1cccc(C(F)(F)F)c1 [NIFLUMIC ACID] | Substrate |
| Oc1cccc2cccnc12 [OXYQUINOLINE] | Substrate |

Biological target: T6, UDP-glucuronosyltransferase 1A9 (Homo sapiens, UniProt O60656)
T6 sequence (O60656 whole entry): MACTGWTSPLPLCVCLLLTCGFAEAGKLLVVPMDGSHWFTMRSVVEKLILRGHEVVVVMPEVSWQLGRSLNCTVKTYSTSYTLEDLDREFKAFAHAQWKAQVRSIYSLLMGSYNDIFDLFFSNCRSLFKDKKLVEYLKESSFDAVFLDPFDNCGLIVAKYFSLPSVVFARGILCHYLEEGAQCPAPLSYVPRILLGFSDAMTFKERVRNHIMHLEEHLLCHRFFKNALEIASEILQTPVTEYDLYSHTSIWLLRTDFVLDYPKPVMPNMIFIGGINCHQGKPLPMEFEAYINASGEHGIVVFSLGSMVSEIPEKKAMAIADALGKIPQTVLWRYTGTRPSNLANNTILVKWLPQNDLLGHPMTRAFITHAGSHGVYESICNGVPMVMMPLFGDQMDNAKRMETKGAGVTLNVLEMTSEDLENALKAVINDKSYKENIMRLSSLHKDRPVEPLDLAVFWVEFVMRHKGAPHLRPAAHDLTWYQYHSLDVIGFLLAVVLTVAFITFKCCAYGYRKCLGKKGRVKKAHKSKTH
Assay: Substrate of human UDP-glucuronosyltransferase UGT1A9
Assay type: ADME
Conditions: not given

| SMILES | Activity |
| --- | --- |
| CCCCNc1cc(C(=O)O)cc(S(N)(=O)=O)c1Oc1ccccc1 [BUMETANIDE] | Substrate |
| O=C(O)c1cc(-c2ccc(F)cc2F)ccc1O [DIFLUNISAL] | Substrate |
| CC(C)OC(=O)C(C)(C)Oc1ccc(C(=O)c2ccc(Cl)cc2)cc1 [FENOFIBRATE] | Substrate |
| CC(C)c1cccc(C(C)C)c1O [PROPOFOL] | Substrate |
| O=C(O)c1ccccc1O [SALICYLIC ACID] | Substrate |

Biological target: T7, UDP-glucuronosyltransferase 2B7 (Homo sapiens, UniProt P16662)
T7 sequence (P16662 whole entry): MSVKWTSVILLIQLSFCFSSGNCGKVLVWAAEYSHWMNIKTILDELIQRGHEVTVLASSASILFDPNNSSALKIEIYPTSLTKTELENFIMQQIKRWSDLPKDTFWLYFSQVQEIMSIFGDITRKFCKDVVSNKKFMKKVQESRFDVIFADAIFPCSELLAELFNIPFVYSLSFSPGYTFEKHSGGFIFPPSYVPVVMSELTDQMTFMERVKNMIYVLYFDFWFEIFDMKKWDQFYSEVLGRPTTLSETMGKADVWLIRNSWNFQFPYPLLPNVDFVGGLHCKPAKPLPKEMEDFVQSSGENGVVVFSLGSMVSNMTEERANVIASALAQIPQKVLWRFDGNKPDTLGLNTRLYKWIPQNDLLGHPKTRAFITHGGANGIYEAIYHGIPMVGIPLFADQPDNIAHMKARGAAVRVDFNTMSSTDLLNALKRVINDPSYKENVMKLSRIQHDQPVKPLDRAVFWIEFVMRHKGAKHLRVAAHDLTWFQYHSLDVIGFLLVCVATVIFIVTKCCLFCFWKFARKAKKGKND
Assay: Substrate of human UDP-glucuronosyltransferase UGT2B7
Assay type: ADME
Conditions: not given

| SMILES | Activity |
| --- | --- |
| CC(C(=O)O)c1ccc2oc(-c3ccc(Cl)cc3)nc2c1 (stereo unspecified) [BENOXAPROFEN] | Substrate |
| CC(C)(Oc1ccc(Cl)cc1)C(=O)O [CLOFIBRIC ACID] | Substrate |
| CN1CC[C@]23c4c5ccc(O)c4O[C@H]2[C@@H](O[C@@H]2O[C@H](C(=O)O)[C@@H](O)[C@H](O)[C@H]2O)C=C[C@H]3[C@H]1C5 [MORPHINE GLUCURONIDE] | Substrate |
| C=CCN1CC[C@]23c4c5ccc(O)c4O[C@H]2C(=O)CC[C@@]3(O)[C@H]1C5 [NALOXONE] | Substrate |
| CC(C(=O)O)c1ccc(C(=O)c2ccccc2)s1 (stereo unspecified) [TIAPROFENIC ACID] | Substrate |
| Cc1cn([C@H]2C[C@H](N=[N+]=[N-])[C@@H](CO)O2)c(=O)[nH]c1=O [ZIDOVUDINE] | Substrate |
| Cc1cc(CC(=O)O)n(C)c1C(=O)c1ccc(Cl)cc1 [ZOMEPIRAC] | Substrate |
